Values quoted from earlier work, collected in patent publication US11026933B2, “Compositions and methods for treatment of cancer” (Children's Hospital Medical Center, priority 2016, dated 2021).

What was measured:
FOXM1 [1] = target: T1, FOXM1 (Homo sapiens, UniProt Q08050); conditions: Gormally et al., 2014
T1 sequence (Q08050 1-763): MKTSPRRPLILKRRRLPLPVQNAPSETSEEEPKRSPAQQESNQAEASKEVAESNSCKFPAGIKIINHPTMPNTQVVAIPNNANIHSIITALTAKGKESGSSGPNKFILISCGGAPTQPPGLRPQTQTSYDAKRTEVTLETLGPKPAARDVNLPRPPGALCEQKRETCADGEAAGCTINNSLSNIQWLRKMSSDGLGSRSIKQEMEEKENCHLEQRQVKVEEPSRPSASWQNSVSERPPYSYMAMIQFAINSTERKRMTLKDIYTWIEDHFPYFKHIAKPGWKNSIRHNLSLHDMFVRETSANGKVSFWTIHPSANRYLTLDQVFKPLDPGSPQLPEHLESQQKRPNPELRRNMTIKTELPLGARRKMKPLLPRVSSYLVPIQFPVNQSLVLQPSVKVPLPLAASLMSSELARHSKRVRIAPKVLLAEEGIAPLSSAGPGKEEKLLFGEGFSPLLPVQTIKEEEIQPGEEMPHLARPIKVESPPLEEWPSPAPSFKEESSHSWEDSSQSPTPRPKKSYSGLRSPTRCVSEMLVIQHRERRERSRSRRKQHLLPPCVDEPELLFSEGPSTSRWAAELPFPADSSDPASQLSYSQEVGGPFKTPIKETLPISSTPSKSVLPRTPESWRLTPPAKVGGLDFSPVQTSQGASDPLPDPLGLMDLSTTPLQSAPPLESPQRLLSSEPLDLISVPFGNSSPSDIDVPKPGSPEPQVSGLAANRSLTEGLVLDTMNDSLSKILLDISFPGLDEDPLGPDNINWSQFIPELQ

FOXM1 [2] = target: T1, FOXM1; conditions: Halasi and Gartel, 2013
FOXM1 [3] = target: T1, FOXM1; conditions: Halasi and Gartel, 2013; remark: listed apart in the source
proteasome = conditions: Halasi and Gartel, 2013

Nc1c(C(=O)Nc2ccc(F)cc2)sc2nc(-c3cccs3)cc(C(F)(F)F)c12 [FDI-6]
FOXM1 binding to DNA (FOXM1 [1]): blocked FOXM1 binding to DNA
binding to FOXM1 protein (FOXM1 [1]): directly bound to FOXM1 protein

C=C(NC(=O)C(=C)NC(=O)c1csc(C2=N[C@@H]3c4csc(n4)[C@H]4NC(=O)c5csc(n5)[C@H]([C@](C)(O)[C@@H](C)O)NC(=O)[C@H]5CSC(=N5)/C(=C/C)NC(=O)[C@H]([C@@H](C)O)NC(=O)c5csc(n5)[C@]3(CC2)NC(=O)[C@H](C)NC(=O)C(=C)NC(=O)C(=C)NC(=O)[C@H](C(C)C)N[C@@H]2C=Cc3c([C@H](C)O)cc(nc3[C@H]2O)C(=O)O[C@@H]4C)n1)C(N)=O [Siomycin A]
inhibition of FOXM1 in cultured tumor cells (FOXM1 [2]): inhibited FOXM1
inhibition of FOXM1 in mouse tumor models (FOXM1 [3]): inhibited FOXM1
proteasome inhibition (proteasome): found to be proteasome inhibitors

C=C(NC(=O)C(=C)NC(=O)c1csc(C2=N[C@@H]3c4csc(n4)[C@H]4NC(=O)c5csc(n5)[C@H]([C@](C)(O)[C@@H](C)O)NC(=O)[C@H]5CSC(=N5)/C(=C/C)NC(=O)[C@H]([C@@H](C)O)NC(=O)c5csc(n5)[C@]3(CC2)NC(=O)[C@H](C)NC(=O)C(=C)NC(=O)[C@H](C)NC(=O)[C@H]([C@@H](C)CC)N[C@@H]2C=Cc3c([C@H](C)O)cc(nc3[C@H]2O)C(=O)O[C@@H]4C)n1)C(N)=O [thiostrepton]
inhibition of FOXM1 in cultured tumor cells (FOXM1 [2]): inhibited FOXM1
inhibition of FOXM1 in mouse tumor models (FOXM1 [3]): inhibited FOXM1
proteasome inhibition (proteasome): found to be proteasome inhibitors
